Measurements taken from paper PMC9120487, “Cryo-EM structures define ubiquinone-10 binding to mitochondrial complex I and conformational transitions accompanying Q-site occupancy” (Nature Communications, 2022).

What was measured:
[1] = target: T1, bovine mitochondrial complex I (CxI-ND) (Bos taurus, UniProt P03887+P03898+P17694+P42026); assay: cryo-EM structure, […] Å; conditions: oxidised resting enzyme in nanodiscs, active state; Q-binding channel between NDUFS2, NDUFS7 and ND1; pH 7.5
T1 construct: gene NDUFS2; native 45-subunit complex (14 core, 31 supernumerary); NDUFS2 residue 129 modelled as Arg, NDUFA10 residue 255 as Lys; human subunit nomenclature; with NADH dehydrogenase [ubiquinone] flavoprotein 1, mitochondrial; NADH dehydrogenase [ubiquinone] flavoprotein 2, mitochondrial; NADH-ubiquinone oxidoreductase 75 kDa subunit, mitochondrial; NADH dehydrogenase [ubiquinone] iron-sulfur protein 3, mitochondrial; NADH dehydrogenase [ubiquinone] iron-sulfur protein 8, mitochondrial; NADH-ubiquinone oxidoreductase chain 2; NADH-ubiquinone oxidoreductase chain 3; NADH-ubiquinone oxidoreductase chain 4; NADH-ubiquinone oxidoreductase chain 4L; NADH-ubiquinone oxidoreductase chain 5; NADH-ubiquinone oxidoreductase chain 6

[2] = target: T1, bovine mitochondrial complex I (CxI-ND); assay: NADH:dQ oxidoreductase activity, […]-380 nm; type: biochemical; conditions: DDM-solubilised enzyme; 200 µM dQ, 200 µM NADH, 0.15% asolectin/CHAPS; pH 7.5, 32 °C; piericidin-sensitive rate

Structure (SMILES)	cryo-EM structure, 2.84 Å [1]	NADH:dQ oxidoreductase activity, 340-380 nm [2]
COC1=C(OC)C(=O)C(C/C=C(\C)CC/C=C(\C)CC/C=C(\C)CC/C=C(\C)CC/C=C(\C)CC/C=C(\C)CC/C=C(\C)CC/C=C(\C)CC/C=C(\C)CCC=C(C)C)=C(C)C1=O [Q10, ubiquinone-10]	In active-Q10, the Q10 density occupies the entirety of the channel	
CCCCCCCCCCC1=C(C)C(=O)C(OC)=C(OC)C1=O [dQ, decylubiquinone]		piericidin-sensitive NADH:dQ oxidoreductase activity of the DDM-solubilised enzyme before reconstitution
